From publication PMC12023841, “Unlocking the Gates: A Novel Diagnostic Molecule for Quantifying Efflux Levels in Gram‐Positive Bacteria” (Advanced Healthcare Materials, 2025)
In brackets after ≈: the same amount, converted by molar mass. Entries after “also recorded” stand apart in the source; their conditions may differ. Like-named read-outs stand apart in the source and are kept apart here.

Legend:
[1] = test system: Staphylococcus aureus ATCC 25923 (Reference, basal); test: MIC, broth microdilution (CLSI); type: cell-based; settings: ATCC25923
[2] = test system: SA 1199 (Wild‐type, basal); test: MIC, broth microdilution (CLSI); type: cell-based; settings: Staphylococcus aureus
[3] = test system: SA 1199‐B (norA overexpressing); test: microbe, parasite or virus in culture; type: cell-based, Staphylococcus aureus; settings: Staphylococcus aureus
[4] = test system: SA‐K1758 (∆norA); test: microbe, parasite or virus in culture; type: cell-based; settings: Staphylococcus aureus
[5] = Solution‐state stability test in MH‐II broth; type: physicochemical; settings: 512–1 µg mL^−1, 37 °C for a day, centrifuged
Description: Before accessing the minimal inhibitory concentration (MIC), each phenazinium derivative was subjected to a solution‐state stability test. For this experiment, each derivative was solubilized in DMSO to achieve a primary stock solution (20 mg mL^−1). This stock was further diluted in MilliQ to achieve a working stock solution (10 mg mL^−1). […] The tubes were placed in an incubator at 37 °C for a day and later centrifuged at 25 000 rpm for 25 min.

[6] = test system: S. aureus strains; settings: cited from earlier work; for Susceptibility profile: key: S: Susceptible; R: Resistant; I: Intermediate
[7] = test system: S. epidermidis strains; design: method as in earlier work; settings: cited from earlier work; note: key: S: Susceptible; R: Resistant; I: Intermediate
[8] = test system: S. aureus strains; settings: cited from earlier work; remark: listed apart in the source; for Susceptibility profile: key: S: Susceptible; R: Resistant; I: Intermediate

Compound `CCCCNc1ccc2nc3cc(NCCC)c(N)cc3[n+](CCC)c2c1` [5a1] has an MIC [1] of 1 µg/mL, an MIC [2] of 1 µg/mL and an MIC [3] of 2 µg/mL. For the same compound, the MIC [4] was 0.5 µg/mL and the “Solution state stability (concentration at which visible precipitation was observed)” value (“Solution state stability” below) [5] was “Visible precipitation was observed at 128 µg mL^−1 and beyond”.
In the case of `CCCCNc1ccc2nc3cc(NCCCC)c(N)cc3[n+](CCC)c2c1` [5a2], the MIC [1] is reported as 1 µg/mL, the MIC [2] is reported as 1 µg/mL and the MIC [3] is reported as 2 µg/mL. The MIC [4] was 0.25 µg/mL and the “Solution state stability” value [5] was “Visible precipitation was observed at 512 µg mL^−1 and beyond”.
For `CCCCCCCCNc1cc2nc3ccc(NCCCC)cc3[n+](CCC)c2cc1N` [5a3], the MIC [1] was 64 µg/mL, the MIC [2] was 64 µg/mL and the MIC [3] was 64 µg/mL. For the same compound, the MIC [4] was 8 µg/mL and the “Solution state stability” value [5] was “Visible precipitation was observed at 128 µg mL^−1 and beyond”.
`CCCCCCCCNc1cc2nc3ccc(NCCCC)cc3[n+](CCCCCCCC)c2cc1N` [5b3] gave an MIC [1] of 32 µg/mL, an MIC [2] of 32 µg/mL and an MIC [4] of 32 µg/mL. The “Solution state stability” value [5] was “Visible precipitation was observed at 128 µg mL^−1 and beyond”.
Compound `CCCCCCCC[n+]1c2cc(NCCCC)ccc2nc2cc(NCCOC)c(N)cc21` [5b4] has an MIC [1] of 1 µg/mL, an MIC [2] of 1 µg/mL and an MIC [3] of 1 µg/mL. For the same compound, the MIC [4] was 2 µg/mL and the “Solution state stability” value [5] was “excellent solubility and stability; also recorded: Stable”.
With `CCCCNc1cc2nc3ccc(NCCC)cc3[n+](CCC)c2cc1N` [5c1] the MIC [1] was 2 µg/mL, the MIC [2] was 2 µg/mL and the MIC [3] was 2 µg/mL. The MIC [4] was 0.5 µg/mL and the “Solution state stability” value [5] was “Stable”.
With `CCCNc1ccc2nc3cc(NCCOC)c(N)cc3[n+](CCC)c2c1` [5c2] the MIC [1] was 4 µg/mL, the MIC [2] was 8 µg/mL and the MIC [3] was 8 µg/mL. For the same compound, the MIC [4] was 4 µg/mL and the “Solution state stability” value [5] was “excellent solubility and stability; also recorded: Stable”.
`CCCCNc1ccc2nc3cc(NCCC)c(N)cc3[n+](CCCC)c2c1` [5d1] gave an MIC [1] of 16 µg/mL, an MIC [2] of 16 µg/mL and an MIC [3] of 16 µg/mL. For the same compound, the MIC [4] was 8 µg/mL and the “Solution state stability” value [5] was “Visible precipitation was observed at 128 µg mL^−1 and beyond”.
`CCCCNc1ccc2nc3cc(NCCCC)c(N)cc3[n+](CCCC)c2c1` [5d2] showed an MIC [1] of 1 µg/mL, an MIC [2] of 1 µg/mL and an MIC [3] of 0.5 to 1 µg/mL. For the same compound, the MIC [4] was 0.5 µg/mL and the “Solution state stability” value [5] was “Visible precipitation was observed at 512 µg mL^−1 and beyond”.
With `CCCCCCCCNc1ccc2nc3cc(NCCC)c(N)cc3[n+](CCCCCCCC)c2c1` [5e1] the MIC [1] was 16 µg/mL, the MIC [2] was 16 µg/mL and the MIC [3] was 16 µg/mL. For the same compound, the MIC [4] was 8 µg/mL and the “Solution state stability” value [5] was “Visible precipitation was observed at 128 µg mL^−1”.
Work on `CCCCCCCCNc1ccc2nc3cc(NC(C)(C)C)c(N)cc3[n+](CCCCCCCC)c2c1` [5e2] yielded an MIC [1] of 8 µg/mL, an MIC [2] of 8 µg/mL and an MIC [3] of 8 µg/mL. The MIC [4] was 8 µg/mL and the “Solution state stability” value [5] was “Stable”.
With `CCCCCCCCNc1ccc2nc3cc(NCCCCCCCC)c(N)cc3[n+](CCCCCCCC)c2c1` [5e3] the MIC [1] was 32 µg/mL, the MIC [2] was 64 µg/mL and the MIC [3] was 64 µg/mL. The MIC [4] was 64 µg/mL and the “Solution state stability” value [5] was “Visible precipitation was observed at 128 µg mL^−1”.
In the case of `O=C(O)c1cn(C2CC2)c2cc(N3CCNCC3)c(F)cc2c1=O` [CIP, Ciprofloxacin], the Susceptibility profile ([6]; strain ATCC25923, ref [4]) is listed as “I”, the Susceptibility profile ([6]; strain ATCC25923_EtBr, ref [4]) is listed as “I” and the Susceptibility profile ([6]; strain SA-1199, ref [2]) is listed as “S”. For the same compound, the Susceptibility profile ([6]; strain SA-1199B, ref [2]) was “R”, the Susceptibility profile ([6]; strain SA-K1712, ref [3]) was “S” and the Susceptibility profile ([6]; strain SA-K1748, ref [3]) was “R”. The Susceptibility profile ([6]; strain SA-K1758, ref [2]) was “S”, the Susceptibility profile ([6]; strain SA-K2068, ref [3]) was “S” and the Susceptibility profile [7] was “I”.
In the case of `CC[n+]1c(-c2ccccc2)c2cc(N)ccc2c2ccc(N)cc21` [EtBrCW, Ethidium bromide], the “Efflux detection method EtBrCW” value ([8]; strain ATCC25923, ref [4]) is given as “Negative”, the “Efflux detection method EtBrCW” value ([8]; strain ATCC25923_EtBr, ref [4]) is given as “Positive (isolates were considered positive if they exhibited fluorescence at the highest EtBr concentration tested (> 2.5 mg/L))” and the “Efflux detection method EtBrCW” value ([8]; strain BIOS-H1, ref [7]) is given as “Negative”. For the same compound, the “Efflux detection method EtBrCW” value ([8]; strain BIOS-H2, ref [7]) was “Negative”, the “Efflux detection method EtBrCW” value ([8]; strain BIOS-H3, ref [7]) was “Negative” and the “Efflux detection method EtBrCW” value ([8]; strain BIOS-H5, ref [7]) was “Negative”. For the same compound, the “Efflux detection method EtBrCW” value ([8]; strain BIOS-H6, ref [7]) was “Negative”, the “Efflux detection method EtBrCW” value ([8]; strain BIOS-H12, ref [7]) was “Negative” and the “Efflux detection method EtBrCW” value ([8]; strain BIOS-H13, ref [7]) was “Negative”. For the same compound, the “Efflux detection method EtBrCW” value ([8]; strain BIOS-H17, ref [7]) was “Negative”, the “Efflux detection method EtBrCW” value ([8]; strain BIOS-H20, ref [7]) was “Negative” and the “Efflux detection method EtBrCW” value ([8]; strain BIOS-H21, ref [7]) was “Negative”. The “Efflux detection method EtBrCW” value ([8]; strain BIOS-H22, ref [7]) was “Negative”, the “Efflux detection method EtBrCW” value ([8]; strain BIOS-H25, ref [7]) was “Negative” and the “Efflux detection method EtBrCW” value ([8]; strain BIOS-H28, ref [7]) was “Negative”. For the same compound, the “Efflux detection method EtBrCW” value ([8]; strain BIOS-H29, ref [7]) was “Negative”, the “Efflux detection method EtBrCW” value ([8]; strain BIOS-H30, ref [7]) was “Negative” and the “Efflux detection method EtBrCW” value ([8]; strain BIOS-H32, ref [7]) was “Negative”. The “Efflux detection method EtBrCW” value ([8]; strain BIOS-V21, ref [8]) was “Negative”, the “Efflux detection method EtBrCW” value ([8]; strain BIOS-V31, ref [8]) was “Negative” and the “Efflux detection method EtBrCW” value ([8]; strain BIOS-V60, ref [8]) was “Negative”. For the same compound, the “Efflux detection method EtBrCW” value ([8]; strain BIOS-V61, ref [8]) was “Negative”, the “Efflux detection method EtBrCW” value ([8]; strain BIOS-V62, ref [8]) was “Negative” and the “Efflux detection method EtBrCW” value ([8]; strain BIOS-V74, ref [8]) was “Negative”. The “Efflux detection method EtBrCW” value ([8]; strain BIOS-V75, ref [8]) was “Negative”, the “Efflux detection method EtBrCW” value ([8]; strain BIOS-V85, ref [8]) was “Negative” and the “Efflux detection method EtBrCW” value ([8]; strain BIOS-V118, ref [8]) was “Negative”. For the same compound, the “Efflux detection method EtBrCW” value ([8]; strain BIOS-V128, ref [8]) was “Negative”, the “Efflux detection method EtBrCW” value ([8]; strain BIOS-V147, ref [8]) was “Negative” and the “Efflux detection method EtBrCW” value ([8]; strain BIOS-V151, ref [8]) was “Negative”. For the same compound, the “Efflux detection method EtBrCW” value ([8]; strain BIOS-V156, ref [8]) was “Negative”, the “Efflux detection method EtBrCW” value ([8]; strain BIOS-V157, ref [8]) was “Negative” and the “Efflux detection method EtBrCW” value ([8]; strain BIOS-V158, ref [8]) was “Negative”. The “Efflux detection method EtBrCW” value ([8]; strain BIOS-V203, ref [8]) was “Negative”, the “Efflux detection method EtBrCW” value ([8]; strain BIOS-V245, ref [8]) was “Negative” and the “Efflux detection method EtBrCW” value ([8]; strain BIOS-V250, ref [8]) was “Negative”. The “Efflux detection method EtBrCW” value ([8]; strain BIOS-V257, ref [8]) was “Negative”, the “Efflux detection method EtBrCW” value ([8]; strain BIOS-V279, ref [8]) was “Negative” and the “Efflux detection method EtBrCW” value ([8]; strain BIOS-V295, ref [8]) was “Negative”. For the same compound, the “Efflux detection method EtBrCW” value ([8]; strain SA-1199, ref [2]) was “Negative”, the “Efflux detection method EtBrCW” value ([8]; strain SA-1199B, ref [2]) was “Positive (isolates were considered positive if they exhibited fluorescence at the highest EtBr concentration tested (> 2.5 mg/L))” and the “Efflux detection method EtBrCW” value ([8]; strain SA-K1748, ref [3]) was “Positive (isolates were considered positive if they exhibited fluorescence at the highest EtBr concentration tested (> 2.5 mg/L))”. The “Efflux detection method EtBrCW” value ([8]; strain SA-K1758, ref [2]) was “Negative”, the “Efflux detection method EtBrCW” value ([8]; strain SM 1, ref [6]) was “Positive (isolates were considered positive if they exhibited fluorescence at the highest EtBr concentration tested (> 2.5 mg/L))” and the “Efflux detection method EtBrCW” value ([8]; strain SM 2, ref [6]) was “Negative^* (Isolates marked with (*) displayed fluorescence at intermediate EtBr concentrations (1–2 mg/L))”. The “Efflux detection method EtBrCW” value ([8]; strain SM 3, ref [6]) was “Negative^* (Isolates marked with (*) displayed fluorescence at intermediate EtBr concentrations (1–2 mg/L))”, the “Efflux detection method EtBrCW” value ([8]; strain SM 4, ref [6]) was “Negative” and the “Efflux detection method EtBrCW” value ([8]; strain SM 5, ref [6]) was “Negative”. The “Efflux detection method EtBrCW” value ([8]; strain SM 6, ref [6]) was “Negative”, the “Efflux detection method EtBrCW” value ([8]; strain SM 7, ref [6]) was “Negative” and the “Efflux detection method EtBrCW” value ([8]; strain SM 8, ref [6]) was “Negative^* (Isolates marked with (*) displayed fluorescence at intermediate EtBr concentrations (1–2 mg/L))”.
Work on `CCn1cc(C(=O)O)c(=O)c2cc(F)c(N3CCNCC3)cc21` [NOR, norfloxacin, reference compound] yielded an MIC [1] of 2 µg/mL (≈ 6.26 µM), an MIC ([2]; SA 1199 (Wild‐type, basal), read-out: MIC) of 2 µg/mL (≈ 6.26 µM) and an MIC [3] of 32 µg/mL (≈ 100 µM). It also gave an MIC [4] of 0.25 µg/mL (≈ 0.783 µM).
